Like-named read-outs stand apart in the source and are kept apart here.
Assays:
[1] = test system: B. subtilis; test: Preincubation experiment (determination of CFU); type: cell-based; details: incubated at 37° C. for 120 min, interpolated from FIG. 3
Protocol: (§1) Exponentially grown bacteria with a density corresponding to an A600 of 0.4 to 0.6, were initially diluted 1:10^5 in 10 mM phosphate buffer (Na—P, pH 7.2) or phosphate buffered saline (PBS, pH 7.4) and incubated at 37° C. for 120 min in Na—P or PBS supplemented with different concentrations of peptides. After this period the reaction mixtures were diluted 1:10 and 1:100 in the same buffer and plated on LB-Agar to determine the colony forming units (CFU). The plating were done in triplets. The colonies were counted with a colony counter (Darkfield, Quebec, Canada).
(§2) An example for the depletion of viable bacteria gives FIG. 2 showing that a time dependent killing of the bacteria during incubation occurs. The interpolation of the date gives the following order of sensitivity of the used strains B. subtilis>S. carnosus=S. epidermidis>Rhodotorula >>E. coli>Enterococcus faecium ATCC 35667. The concentration necessary to reduce the colony forming units (CFU) to 50% of the initial CFU ranges from 180 μg/ml (E. faecium) over 20 μg/ml (E. coli, S. carnosus, R. rubra) to 1 μg/ml for B. subtilis indicating a potent inhibitory effect of the used peptide.

[2] = test system: E. coli; test: Preincubation experiment (determination of CFU); type: cell-based; details: incubated at 37° C. for 120 min, interpolated from FIG. 3
Protocol: as §1, §2

[3] = test system: Enterococcus faecium ATCC 35667; test: Preincubation experiment (determination of CFU); type: cell-based; details: E. faecium; incubated at 37° C. for 120 min; interpolated from FIG. 3
Protocol: as §1, §2

[4] = test system: S. carnosus; test: Preincubation experiment (determination of CFU); type: cell-based, Staphylococcus carnosus; details: incubated at 37° C. for 120 min, interpolated from FIG. 3
Protocol: as §1, §2

[5] = test system: R. rubra; test: Preincubation experiment (determination of CFU); type: cell-based, Rhodotorula rubra; details: incubated at 37° C. for 120 min, interpolated from FIG. 3
Protocol: as §1, §2

[6] = test system: S. carnosus; type: cell-based, Staphylococcus carnosus
Protocol: To determine the minimal inhibitory concentration of casocidin-I under the influence of the medium strength or in the presence of bivalent cations, a dilution assay was performed in 96-well cell culture clusters. After diluting the peptide in 50 μl medium (tryptic soy broth, Sigma, Germany) with adjusted pH 7.2, ion concentrations or medium strength on one plate, the same amount of medium with appr. 2-4*10^3 bacteria in 50 μl medium were added to the diluted samples. The incubations were done overnight at 37° C. The minimal inhibitory concentration was manually read using a microscope.

[7] = Storage of lyophilized peptide; type: physicochemical; details: room temperature
[8] = test system: E. coli transformed with the plasmid pUC18; test: Membrane permeabilization, release of beta-galactosidase and beta-lactamase; type: cell-based; details: 37° C. for 30 min, FIG. 5
Protocol: The beta-galactosidase indicated the degree of the permeabilization of the inner membrane (IM) of E. coli. The permeabilization of the outer membrane was monitored by determination of released beta-Lactamase (plasmid coded) mainly present in the periplasmatic space.
To measure the relative release of beta-galactosidase a suspension of E. coli grown overnight in LB medium was washed once in phosphate buffer (10 mM, pH 7.0). Afterwards the bacteria were resuspended to a final density of app. 0.5 A600. Peptide fractions were lyophilized in 1.5 ml tubes in a speed vac concentrator and solved in 40 μl phosphate buffer. To the peptide solution a volume of 200 μl bacterial suspension was added and the incubation was performed at 37° C. for 30 min. As a control, to determine the maximum of the enzyme release, bacteria were disrupted by ultrasonic treatment (about 100 joules in 10 sec). […] The absorbance of the samples at 405 nm was measured and the increase of each absorbance was normalized to the sonified sample assuming enzymatic release of 100%.
To detect the release of beta-lactamase the supernatants of E. coli were prepared as described for the beta-galactosi-dase. […] The samples were incubated for 45 min at 37° C. in the dark and the absorbance was measured at a wavelength of 700 nm and the normalization was done with the results gained with sonified samples.

[9] = test system: bacteria; test: Antibacterial / antimicrobial effect of comparison peptides; type: cell-based

CC[C@H](C)[C@H](NC(=O)[C@H](CCCCN)NC(=O)[C@H](CCCCN)NC(=O)[C@H](CC(C)C)NC(=O)[C@H](Cc1ccccc1)NC(=O)[C@H](CC(N)=O)NC(=O)[C@H](CC(C)C)NC(=O)[C@H](CCCNC(=N)N)NC(=O)[C@H](CC(N)=O)NC(=O)[C@H](CCCCN)NC(=O)[C@H](CCC(=O)O)NC(=O)[C@H](CCC(=O)O)NC(=O)[C@H](CCC(=O)O)NC(=O)[C@@H](NC(=O)[C@H](CC(C)C)NC(=O)[C@H](CCCCN)NC(=O)[C@@H](NC(=O)[C@@H](N)CCCCN)[C@@H](C)O)[C@@H](C)O)C(=O)N[C@@H](CO)C(=O)N[C@@H](CCC(N)=O)C(=O)N[C@@H](CCCNC(=N)N)C(=O)N[C@@H](Cc1ccc(O)cc1)C(=O)N[C@@H](CCC(N)=O)C(=O)N[C@@H](CCCCN)C(=O)N[C@@H](Cc1ccccc1)C(=O)N[C@@H](C)C(=O)N[C@@H](CC(C)C)C(=O)N1CCC[C@H]1C(=O)N[C@@H](CCC(N)=O)C(=O)N[C@@H](Cc1ccc(O)cc1)C(=O)N[C@@H](CC(C)C)C(=O)N[C@@H](CCCCN)C(=O)N[C@H](C(=O)N[C@H](C(=O)N[C@@H](Cc1ccc(O)cc1)C(=O)N[C@@H](CCC(N)=O)C(=O)N[C@@H](Cc1c[nH]cn1)C(=O)N[C@@H](CCC(N)=O)C(=O)N[C@@H](CCCCN)C(=O)O)C(C)C)[C@@H](C)O [casocidin-I]
concentration necessary to reduce the colony forming units (CFU) to 50% of the initial CFU [1]: 1 µg/mL | concentration necessary to reduce the colony forming units (CFU) to 50% of the initial CFU [2]: 20 µg/mL | concentration necessary to reduce the colony forming units (CFU) to 50% of the initial CFU [3]: 180 µg/mL | concentration necessary to reduce the colony forming units (CFU) to 50% of the initial CFU [4]: 20 µg/mL | concentration necessary to reduce the colony forming units (CFU) to 50% of the initial CFU [5]: 20 µg/mL | MIC ([6]; bivalent cation 2.5 mM Ca): no | MIC ([6]; bivalent cation 2.5 mM Mn): no | MIC ([6]; medium strength 1 (tryptic soy broth, pH 7.2)): no | potency when lyophilized, storage [7]: keeps its potency when lyophilized | mechanism of action: release of intracellular enzymes beta-galactosidase and beta-lactamase [8]: membrane permeabilizing effect

QRYQ
antibacterial / antimicrobial effect [9]: not sufficient to gain antimicrobial properties

From patent US6579849B2, “Antibiotic peptides from bovine milk” (HaemoPep Pharma GmbH, priority 1998, dated 2003)
